According to ChEMBL document CHEMBL1201862, “PubChem BioAssay data set” (2004):
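48-hour exposure; five concentrations; linearly interpolated endpoints. At the GI50, growth is halved.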 Activity calls are given as the source filed them. Rule as the data show it: active = GI50 up to about 1.1 µM and inactive = higher.

Tests used:
Experiment in all cases: NCI tumour cell line growth inhibition, 48 h
NCI-H226 = system: NCI-H226
RXF 393 = system: RXF 393
NCI-H460 = system: NCI-H460
OVCAR-4 = system: OVCAR-4
CAKI-1 = system: CAKI-1
UO-31 = system: UO-31
SF-539 = system: SF-539
A498 = system: A498
OVCAR-3 = system: OVCAR-3
SK-MEL-5 = system: SK-MEL-5
NCI-H23 = system: NCI-H23
SK-MEL-2 = system: SK-MEL-2
NCI/ADR-RES = system: NCI/ADR-RES
MCF7 = system: MCF7
IGROV-1 = system: IGROV-1
SN12C = system: SN12C
SF-295 = system: SF-295
M14 = system: M14
RPMI-8226 = system: RPMI-8226
UACC-257 = system: UACC-257
TK-10 = system: TK-10
HOP-62 = system: HOP-62
ACHN = system: ACHN
786-0 = system: 786-0
CCRF-CEM = system: CCRF-CEM
OVCAR-5 = system: OVCAR-5
SW-620 = system: SW-620
EKVX = system: EKVX
HT-29 = system: HT-29
BT-549 = system: BT-549
OVCAR-8 = system: OVCAR-8
SK-MEL-28 = system: SK-MEL-28
SNB-19 = system: SNB-19
LOX IMVI = system: LOX IMVI
SK-OV-3 = system: SK-OV-3
KM12 = system: KM12
A549 = system: A549
HOP-92 = system: HOP-92
HCC 2998 = system: HCC 2998
HL-60 = system: HL-60
Malme-3M = system: Malme-3M
DU-145 = system: DU-145
T47D = system: T47D
MDA-N = system: MDA-N
COLO 205 = system: COLO 205
MOLT-4 = system: MOLT-4
SNB-75 = system: SNB-75
K562 = system: K562
UACC-62 = system: UACC-62
MDA-MB-435 = system: MDA-MB-435
MDA-MB-231 = system: MDA-MB-231
HCT-116 = system: HCT-116
NCI-H522 = system: NCI-H522
HCT-15 = system: HCT-15
SR = system: SR
U-251 = system: U-251
PC-3 = system: PC-3
SF-268 = system: SF-268

Structure (SMILES): COc1cc(/C=C2\C(=O)N(c3cc(Cl)ccc3Cl)C(c3ccccc3)S2(=O)=O)cc(OC)c1OC (configuration not stated)
- GI50 (NCI-H226): 25.4 µM (inactive)
- GI50 (RXF 393): > 100 µM (inactive)
- GI50 (NCI-H460): > 100 µM (inactive)
- GI50 (OVCAR-4): 62.1 µM (inactive)
- GI50 (CAKI-1): > 100 µM (inactive)
- GI50 (UO-31): 46.8 µM (inactive)
- GI50 (SF-539): 90.6 µM (inactive)
- GI50 (A498): > 100 µM (inactive)
- GI50 (OVCAR-3): 34.8 µM (inactive)
- GI50 (SK-MEL-5): 57.4 µM (inactive)
- GI50 (NCI-H23): 96.4 µM (inactive)
- GI50 (SK-MEL-2): > 100 µM (inactive)
- GI50 (NCI/ADR-RES): 34.1 µM (inactive)
- GI50 (MCF7): 27 µM (inactive)
- GI50 (IGROV-1): 28.3 µM (inactive)
- GI50 (SN12C): 62.1 µM (inactive)
- GI50 (SF-295): 51.5 µM (inactive)
- GI50 (M14): 40.6 µM (inactive)
- GI50 (RPMI-8226): 45.4 µM (inactive)
- GI50 (UACC-257): > 100 µM (inactive)
- GI50 (TK-10): > 100 µM (inactive)
- GI50 (HOP-62): > 100 µM (inactive)
- GI50 (ACHN): > 100 µM (inactive)
- GI50 (786-0): > 100 µM (inactive)
- GI50 (CCRF-CEM): 42.9 µM (inactive)
- GI50 (OVCAR-5): 38.5 µM (inactive)
- GI50 (SW-620): 33.7 µM (inactive)
- GI50 (EKVX): 29.3 µM (inactive)
- GI50 (HT-29): 81.5 µM (inactive)
- GI50 (BT-549): 83.2 µM (inactive)
- GI50 (OVCAR-8): > 100 µM (inactive)
- GI50 (SK-MEL-28): 63.8 µM (inactive)
- GI50 (SNB-19): > 100 µM (inactive)
- GI50 (LOX IMVI): 55.6 µM (inactive)
- GI50 (SK-OV-3): > 100 µM (inactive)
- GI50 (KM12): 36.6 µM (inactive)
- GI50 (A549): > 100 µM (inactive)
- GI50 (HOP-92): 45.1 µM (inactive)
- GI50 (HCC 2998): > 100 µM (inactive)
- GI50 (HL-60): 19.2 µM (inactive)
- GI50 (Malme-3M): 42.9 µM (inactive)
- GI50 (DU-145): > 100 µM (inactive)
- GI50 (T47D): 26.1 µM (inactive)
- GI50 (MDA-N): 22.2 µM (inactive)
- GI50 (COLO 205): > 100 µM (inactive)
- GI50 (MOLT-4): 25.1 µM (inactive)
- GI50 (SNB-75): 61.1 µM (inactive)
- GI50 (K562): 31 µM (inactive)
- GI50 (UACC-62): 37.2 µM (inactive)
- GI50 (MDA-MB-435): 27.7 µM (inactive)
- GI50 (MDA-MB-231): > 100 µM (inactive)
- GI50 (HCT-116): 38.5 µM (inactive)
- GI50 (NCI-H522): 29.5 µM (inactive)
- GI50 (HCT-15): 39.4 µM
- GI50 (SR): 31.6 µM (inactive)
- GI50 (U-251): 86.1 µM (inactive)
- GI50 (PC-3): 55.8 µM (inactive)

Structure (SMILES): Cc1cc(C#N)c(Nc2c(C)cccc2[N+](=O)[O-])s1
- GI50 (NCI-H226): > 100 µM (inactive)
- GI50 (RXF 393): 16.4 µM (inactive)
- GI50 (NCI-H460): 76.4 µM (inactive)
- GI50 (OVCAR-4): 57.4 µM (inactive)
- GI50 (CAKI-1): 36.9 µM (inactive)
- GI50 (UO-31): > 100 µM (inactive)
- GI50 (SF-539): 43.2 µM (inactive)
- GI50 (SF-268): 28 µM (inactive)
- GI50 (A498): 66.7 µM (inactive)
- GI50 (OVCAR-3): 29.5 µM (inactive)
- GI50 (NCI-H23): 39.7 µM (inactive)
- GI50 (NCI/ADR-RES): 25.4 µM (inactive)
- GI50 (SN12C): > 100 µM (inactive)
- GI50 (SF-295): 28.8 µM (inactive)
- GI50 (M14): > 100 µM (inactive)
- GI50 (RPMI-8226): > 100 µM (inactive)
- GI50 (UACC-257): 39.3 µM (inactive)
- GI50 (HOP-62): 25.4 µM (inactive)
- GI50 (ACHN): 49.7 µM (inactive)
- GI50 (786-0): 26.9 µM (inactive)
- GI50 (CCRF-CEM): 16.6 µM (inactive)
- GI50 (OVCAR-5): 12.4 µM (inactive)
- GI50 (SW-620): > 100 µM (inactive)
- GI50 (EKVX): 27.3 µM (inactive)
- GI50 (BT-549): 24.3 µM (inactive)
- GI50 (OVCAR-8): 42.9 µM (inactive)
- GI50 (SK-MEL-28): 76.9 µM (inactive)
- GI50 (SNB-19): 68.2 µM (inactive)
- GI50 (SK-OV-3): 35.4 µM (inactive)
- GI50 (KM12): > 100 µM (inactive)
- GI50 (A549): 46.3 µM (inactive)
- GI50 (HOP-92): 24.3 µM (inactive)
- GI50 (HCC 2998): 87.7 µM (inactive)
- GI50 (Malme-3M): 40.2 µM (inactive)
- GI50 (DU-145): 36.2 µM (inactive)
- GI50 (T47D): 12.4 µM (inactive)
- GI50 (MDA-N): 97.7 µM (inactive)
- GI50 (COLO 205): > 100 µM (inactive)
- GI50 (MOLT-4): 92 µM (inactive)
- GI50 (SNB-75): 21.5 µM (inactive)
- GI50 (K562): > 100 µM (inactive)
- GI50 (UACC-62): 37.9 µM (inactive)
- GI50 (MDA-MB-435): 61 µM (inactive)
- GI50 (MDA-MB-231): 24.7 µM (inactive)
- GI50 (HCT-116): 73.8 µM (inactive)
- GI50 (NCI-H522): 30.4 µM (inactive)
- GI50 (HCT-15): 50 µM
- GI50 (SR): 49.7 µM (inactive)
- GI50 (U-251): 35.7 µM (inactive)
- GI50 (PC-3): 17.3 µM (inactive)
